The nature of data set [1]: solubility and behaviour in water. The data set is classed as physicochemical. From the text: The present inventors have attempted to prepare a medicament comprising (2R)-2-propyloctanoic acid or a salt thereof in a high concentration, which is useful for the treatment of neurodegenerative diseases including cerebral infarction, and which can be formulated to an injection which can be conveniently administered to a patient, if necessary, by means of the dissolution or dilution operation. […] The inventors have conducted studies to solve these problems and have found as a result that (2R)-2-propyloctanoic acid can be dissolved in water in a high concentration by mixing it with a strong alkali such as sodium hydroxide. […] Moreover, the solution in a high concentration was difficult to be stored for a long period of time because of the appearance of insoluble allotrio within the solution under long-term storage in conventional glass containers. Thus, there are problems in using a drug which is sensitive to a change in the drug concentration or in the pH of the solution, leading to a change such as clouding. That is, there is in fact the risk of clouding of the drug, upon preparing an injection which can be administered to a patient, by direct manipulation of a person involved in medical services, for combined use with other agents, or during the action of intravascular administration to a patient. […]

The subject of data set [2] is dog. The data set can be described thus: single intravenous administration toxicity using a dog. The data set is classed as in vivo. The following applies: dose of 100 mg/kg.
Data set [3] is described as follows: confirmation test of micelle formation (fat staining with Sudan III, absorbance of supernatant). The data set is classed as physicochemical. The source says:
The fat staining method includes, for example, a method of mixing a solution of a fat-soluble dye (for example, Sudan III, piacyanol chloride, Rhodamine 6G, etc.) with the solution under test, followed by centrifugation after a certain period of time, and measuring the absorbance of the supernatant which is inherent to the fat-soluble dye used. If the absorbance of the supernatant can be measured according to this test method, it implies that the fat-soluble dye is present within micelles, that is, micelles have been formed, and thus it is possible to determine that a micelle water dispersion liquid has been formed. It is also possible to define the critical concentration of micelle formation, that is, a critical micelle concentration (CMC), by means of such a test.
The critical micelle concentration cannot be exactly determined since it depends on the substance forming micelles, the type of co-existing ions and the concentration thereof, the ionic strength, and even on temperature. […]
Into a spitz made of glass, the Sudan III solution prepared in the above (2) (400 μL) was added, and ethanol was evaporated Each of the (2R)-2-propyloctanoic acid solutions of various concentrations prepared in the above (1) was added thereto, and the mixture was subjected to sonication and stirring. […] The absorbance of the supernatant was measured at a wavelength of 502 nm.

SMILES strings stand for the structures.

As for `CCCCCC[C@@H](CCC)C(=O)[O-].[Na+]` [(2R)-2-propyloctanoic acid-sodium salt], the “pH and clouding of solution in water” value in data set [1] (dissolved in water) was “has a high pH and is susceptible to clouding under slight fluctuations of the pH”.
Regarding `CCCCCC[C@@H](CCC)C(=O)O` [(2R)-2-propyloctanoic acid], the solubility in water result in data set [1] (water) is “insoluble and immiscible in water”. Besides, in data set [2], the “death after single intravenous administration” value is recorded as “did not result in death”. Also, the critical micelle concentration in data set [3] (aqueous medicament comprising about 1 to about 5 equivalents of basic sodium ion based on 1 equivalent of (2R)-2-propyloctanoic acid, room temperature) was 20 to 25 mg/mL. Besides, the “concentration at which micelle formation occurred” value in data set [3] (aqueous solution with trisodium phosphate dodecahydrate, Sudan III, left at room temperature for 1 day, absorbance at 502 nm) was “about 20 mg/mL”.

For the origin of these results see US8053599B2, “Drug containing (2R)-2-propyloctanoic acid as the active ingredient” (Ono Pharmaceutical Co., Ltd., priority 2003, dated 2011).
